Laboratory results taken from patent publication US20070213359A1 (ACADIA Pharmaceuticals Inc., priority 2005, published 2007).
Where two headings read alike, the source gives them in different places.

Biological target: Ghrelin receptor (Homo sapiens, UniProt Q92847)
Test: Receptor Selection and Amplification Technology (R-SAT) assay
Assay type: cell-based
Set-up: expressed in transfected cells; host or cells: NIH3T3
Conditions: for IC50: '—' not defined (nd used separately), read-out: RSAT pIC50 (converted); for Emax: read-out: RSAT Eff(%)
[1] = negative logarithm of ligand concentration causing 50% inhibition of constitutive receptor response, transfected NIH3T3 cells
[2] = percent inhibition at saturating ligand, normalized to reference ligand Substance P analog = 100%

Sequence of Ghrelin receptor (Q92847 whole entry): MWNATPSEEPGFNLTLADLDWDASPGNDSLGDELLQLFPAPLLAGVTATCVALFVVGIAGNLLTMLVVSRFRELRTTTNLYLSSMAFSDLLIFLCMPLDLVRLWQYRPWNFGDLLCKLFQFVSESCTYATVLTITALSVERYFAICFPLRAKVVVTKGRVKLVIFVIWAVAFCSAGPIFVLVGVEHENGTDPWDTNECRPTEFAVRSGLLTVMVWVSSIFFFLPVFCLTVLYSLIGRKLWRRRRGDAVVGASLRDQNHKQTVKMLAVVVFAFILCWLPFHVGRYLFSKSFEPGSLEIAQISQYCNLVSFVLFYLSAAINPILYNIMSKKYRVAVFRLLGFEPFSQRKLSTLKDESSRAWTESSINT

COc1cccc2c(C(=O)C3CC3)cn(CCCN3CCC(c4nc5ccccc5s4)CC3)c12
IC50 ([…]): 501 nM
Emax: 88%

CCCOC1CCN(CCCn2cc(C(C)=O)c3ccc(Br)cc32)CC1
IC50 [1]: 251 nM
Emax [2]: 107%

CC(=O)c1cn(CCCN2C3CCC2CC(Oc2ccc(F)cc2)C3)c2c(Cl)cccc12 (stereo not drawn)
IC50 [1]: 100 nM
Emax [2]: 87%

COc1ccc2c(C(C)=O)cn(CCCN3C4CCC3CC(OCC3CC3)C4)c2c1 (stereo not drawn)
IC50 [1]: 158 nM
Emax [2]: 93%

O=C(c1cn(CCCN2CCC(c3nc4ccccc4s3)CC2)c2ccccc12)C(F)(F)F
IC50 [1]: 398 nM
Emax [2]: 88%

CC(=O)c1cn(CCCN2C3CCC2CC(CC(=O)c2ccc(Cl)cc2)C3)c2c(C#N)cccc12 (stereo not drawn)
Emax: 31%

CCc1cccc2c(C(C)=O)cn(CCCN3C4CCC3CC(Oc3ccccc3Cl)C4)c12 (stereo not drawn)
IC50 [1]: 100 nM
Emax [2]: 101%

CC(=O)c1cn(CCCN2CCC(N3C(=O)Cc4ccccc43)CC2)c2c(Br)cccc12
RSAT Eff(%): 60%
IC50 ([…]): 100 nM

COc1cccc2c(C(=O)c3ccccc3)cn(CCCN3CCCC(Cc4ccccc4Cl)C3)c12 (stereo not drawn)
IC50 ([…]): 63.1 nM
Emax: 82%

COc1ccccc1C1CCN(CCCn2cc(C(C)=O)c3ccccc32)CC1 [drawing 533]
IC50 [1]: 316 nM
Emax [2]: 109%

CC(=O)c1cn(CCCN2CCC(c3nc(-c4cccnc4)no3)CC2)c2ncccc12
IC50 [1]: 20000 nM
Emax [2]: 55%

COc1cccc2c(C(=O)Cc3ccccc3)cn(CCCN3CCCC(Oc4ccc(Cl)cc4)C3)c12 (stereo not drawn)
IC50 ([…]): 316 nM
Emax: 86%

COc1cccc2c(C(C)=O)cn(CCCN3CCN(CC(=O)N4CCOCC4)CC3)c12
IC50 ([…]): 1580 nM
Emax: 37%

CC(=O)c1cn(CCCCN2CCC(Oc3ccc(F)cc3)CC2)c2ccccc12
Emax: 41%

COc1cccc2c(C(=O)NCC(C)C)cn(CCCN3CCN(Cc4ccc(Cl)cc4Cl)CC3)c12
IC50 ([…]): 25.1 nM
Emax: 105%

O=C(c1cn(CCCN2CCC(CCOc3ccc(Cl)cc3)CC2)c2ncccc12)C(F)(F)F
Emax [2]: 37%

COc1cccc2c(C(=O)c3ccccc3)cn(CCCN3CCC(c4nc(-c5cccnc5)no4)CC3)c12
IC50 ([…]): 39.8 nM
Emax: 80%

COc1ccccc1C1CCN(CCCn2cc(CCC(C)=O)c3ccccc32)CC1
IC50 [1]: 5010 nM
Emax [2]: 78%

O=C(c1cn(CCCN2CCCC(Oc3ccc(Cl)cc3)C2)c2ncccc12)C(F)(F)F (stereo not drawn)
Emax [2]: 2%

CC(=O)c1cn(CCCN2C3CCC2CC(Oc2ccccc2Cl)C3)c2c(Br)cccc12 (stereo not drawn)
Emax: 65%

CC(=O)c1cn(CCCN2CCN(CCOc3ccccc3)CC2)c2ncccc12
IC50 [1]: 631 nM
Emax [2]: 81%

CCc1cccc2c(C(C)=O)cn(CCCN3CCC(c4nc(-c5ccncc5)no4)CC3)c12
IC50 [1]: 39.8 nM
Emax [2]: 121%

COc1cccc2c(C(=O)NCC(C)C)cn(CCCN3CCC(Oc4cccc(Cl)c4)CC3)c12
IC50 [1]: 31.6 nM
Emax: 71%

COc1cccc2c(C(=O)C3CC3)cn(CCCN3CCCC(Cc4ccccc4Cl)C3)c12 (stereo not drawn)
Emax: 28%

COc1cccc2c(C(=O)NCc3cccc(Cl)c3)cn(CCCN3CCCN(Cc4ccccc4Cl)CC3)c12
IC50 ([…]): 20 nM
Emax: 107%

CC(=O)c1cn(CC(O)CN2CCC(c3nc4ccccc4s3)CC2)c2ccccc12 (stereo not drawn)
IC50 [1]: 200 nM
Emax [2]: 58%

CC(=O)c1c(C)n(CCCN2CCCN(Cc3ccc(F)cc3)CC2)c2c(Br)cccc12
IC50 [1]: 398 nM
Emax [2]: 49%

CC(=O)c1c(C)n(CCCN2CCN(CCOc3ccc(Cl)cc3)CC2)c2c(Br)cccc12
Emax: -13%

CC(=O)c1c(C)n(CCCNCCOc2ccccc2)c2c(Br)cccc12
Emax: 5%

CC(CN1C2CCC1CC(Oc1ccc(F)cc1)C2)Cn1cc(C(=O)C(F)(F)F)c2cccnc21 (stereo not drawn)
Emax [2]: 35%

CC(=O)c1cn(CC(C)CN2CCC(O)(Cc3ccccc3)CC2)c2ccccc12 (stereo not drawn)
Emax: -3%

CCOC(=O)C1CCN(CCn2cc(C(C)=O)c3ccccc32)CC1
IC50 ([…]): 3980 nM
Emax: 72%

CC(=O)c1cn(CC(C)CN2CCC(Cc3ccccc3)CC2)c2ccccc12 (stereo not drawn)
IC50 [1]: 3980 nM
Emax [2]: 121%

CC(=O)c1cn(CCCN2CCCC(Oc3ccc(Cl)cc3)C2)c2ncccc12 (stereo not drawn)
Emax [2]: 53%

CCCCC(=O)c1cn(CCCN2CCC(Oc3ccc(F)cc3)CC2)c2ccc(OC)cc12
IC50 [1]: 100 nM
Emax: 91%

CCCCC(=O)c1cn(CCCN2CCC(OCCC)CC2)c2ccc(OC)cc12
IC50 [1]: 126 nM
Emax [2]: 114%

CC(=O)c1cn(CCCN2CCN(CCOc3ccc(Cl)c4ccccc34)CC2)c2c(C#N)cccc12
Emax: 53%

CCCCC1CCN(CCCn2cc(C(C)=O)c3cccc(Cl)c32)CC1
IC50 [1]: 316 nM
Emax [2]: 80%

COc1cccc2c(C(=O)C3CC3)cn(CCCN3C4CCC3CC(CCc3ccccc3)C4)c12 (stereo not drawn)
IC50 ([…]): 2.51 nM
Emax: 109%

CC(=O)c1cn(CCCN2CCC(Oc3cccc(Cl)c3)CC2)c2c(Br)cccc12
IC50 [1]: 1 nM
Emax [2]: 92%

COc1cccc2c(C(=O)NCc3cccc(Cl)c3)cn(CCCN3CCN(CCOc4ccc(Cl)c5ccccc45)CC3)c12
Emax: 59%

CC(C)CC(=O)c1cn(CCCN2CCC(c3nc4c(s3)C=CCC4)CC2)c2ccccc12
IC50 ([…]): 126 nM
Emax: 108%

COc1cccc2c(C(=O)C3CC3)cn(CCCN3CCCC(Oc4ccc(Cl)cc4)C3)c12 (stereo not drawn)
IC50 ([…]): 126 nM
Emax: 37%

CCCOC1CCN(CCCn2cc(CCC(C)=O)c3ccccc32)CC1
IC50 [1]: 15800 nM
Emax [2]: 75%

COc1cccc2c(C(C)=O)cn(CCCN3CCC(Oc4ccc(F)cc4)CC3)c12 [drawing 241]
IC50 [1]: 2.51 nM
RSAT Eff(%) [2]: 104%

CCCCC1CCN(CC(C)Cn2c(=O)sc3ccccc32)CC1 (stereo not drawn)
IC50 [1]: 2000 nM
Emax [2]: 84%

CC(=O)c1cn(CCCCN2C3CCC2CC(Oc2ccc(Cl)cc2)C3)c2ccccc12 (stereo not drawn)
IC50 [1]: 3160 nM
Emax [2]: 119%

CC(=O)c1cn(CCCN2CCC(Oc3ccc(Cl)cc3)CC2)c2cc(Br)ccc12
IC50 [1]: 1260 nM
Emax [2]: 74%

COc1cccc2c(C(=O)NCC(C)C)cn(CCCN3CCC(C(=O)c4ccccc4)CC3)c12
IC50 ([…]): 79.4 nM
Emax: 114%

CC(=O)c1cn(CCCN2CCN(CCOc3ccccc3)CC2)c2c(Br)cccc12
IC50 [1]: 501 nM
Emax [2]: 91%

COc1cccc2c(C(=O)NCc3cccc(Cl)c3)cn(CCCN3CCCC(Cc4ccccc4Cl)C3)c12 (stereo not drawn)
IC50 ([…]): 2000 nM
Emax: 47%

COc1cccc2c(C(=O)NCc3cccc(C)c3)cn(CCCN3C4CCC3CC(CCc3ccccc3)C4)c12 (stereo not drawn)
IC50 ([…]): 10 nM
Emax: 89%

O=C(c1cn(CCCN2CCC(c3nc(-c4cccnc4)no3)CC2)c2ncccc12)C(F)(F)F
Emax [2]: 72%

CCc1cccc2c(C(C)=O)cn(CCCN3C4CCC3CC(Oc3ccc(F)cc3)C4)c12 (stereo not drawn)
IC50 [1]: 200 nM
Emax [2]: 98%

CCCCC(=O)c1cn(CCCN2CCC(CCCC)CC2)c2ccc(OC)cc12
IC50 [1]: 158 nM
Emax [2]: 104%

CCc1cccc2c(C(C)=O)cn(CCCN3CCCC(Oc4ccc(Cl)cc4)C3)c12 (stereo not drawn)
Emax: 13%

CC(=O)c1cn(CCCN2CCC(Oc3ccccc3Cl)CC2)c2ccc(Br)cc12
IC50 [1]: 15800 nM
Emax [2]: 74%

COc1ccc2c(C(C)=O)cn(CCCN3CCC(c4ccccc4OC)CC3)c2c1
IC50 ([…]): 251 nM
Emax: 72%

COc1cccc2c(C(=O)c3ccccc3)cn(CCCNC3Cc4ccccc4C3)c12
IC50 ([…]): 316 nM
Emax: 93%

CC(=O)c1cn(CCCN2CCC(CCOc3ccc(Cl)cc3)CC2)c2c(C#N)cccc12
Emax: 27%

CC(=O)c1cn(CCCN2CCCN(Cc3ccc(F)cc3)CC2)c2c(Br)cccc12
IC50 [1]: 5.01 nM
Emax [2]: 95%

COc1cccc2c(C(=O)C3CC3)cn(CCCN3C4CCC3CC(Oc3ccccc3Cl)C4)c12 (stereo not drawn)
IC50 ([…]): 158 nM
Emax: 130%

COc1cccc2c(C(=O)Cc3ccccc3)cn(CCCNCCOc3ccccc3)c12
IC50 ([…]): 50.1 nM
Emax: 92%

CC(=O)c1cn(CCCN2CCCC(Oc3ccc(Cl)cc3)C2)c2c(Cl)cccc12 (stereo not drawn)
Emax: 7%

CCOC(=O)C1CCN(CCCn2cc(C(=O)C(F)(F)F)c3ccccc32)CC1
IC50 ([…]): 5010 nM
Emax: 64%

CCCCC[C@H]1C[C@H]2CC[C@@H](C1)N2CCCn1cc(C(=O)C2CC2)c2cccc(OC)c21
IC50 ([…]): 200 nM
Emax: 101%

CCCCC1CCN(CCCn2cc(C(=O)CC(C)C)c3ccccc32)CC1
IC50 [1]: 398 nM
Emax [2]: 85%

CC(=O)c1cn(CCCN2CCC(C(=O)c3ccccc3)CC2)c2cc(Br)ccc12
IC50 ([…]): 2510 nM
Emax: 36%

O=C(c1cn(CCCN2CCC(Cc3ccccc3)CC2)c2ccccc12)C(F)(F)F
IC50 [1]: 6310 nM
Emax [2]: 112%

COc1ccccc1C1CCN(CC(C)Cn2cc(C(C)=O)c3ccccc32)CC1 (stereo not drawn)
IC50 [1]: 15800 nM
Emax [2]: 64%

COc1ccc2c(C(C)=O)cn(CCCN3CCC(Oc4ccccc4Cl)CC3)c2c1
IC50 [1]: 251 nM
Emax [2]: 88%

COc1cccc2c(C(=O)c3ccccc3)cn(CCCN3C4CCC3CC(CCc3ccc(Cl)cc3)C4)c12 (stereo not drawn)
IC50 ([…]): 15.8 nM
Emax: 94%

CCC(=O)c1cn(CCCN2CCC(S(=O)(=O)c3ccc(Cl)cc3)CC2)c2ccccc12
Emax: 1%

COc1cccc2c(C(=O)C3CC3)cn(CCCN3CCN(CCOc4ccccc4)CC3)c12
IC50 ([…]): 7.94 nM
Emax: 94%

CC(=O)c1cn(CCCN2CCN(CCOc3ccccc3)CC2)c2c(Cl)cccc12
IC50 [1]: 200 nM
Emax [2]: 91%

COc1ccccc1C1CCN(CCCn2cc(C(=O)CC(C)C)c3ccccc32)CC1
IC50 [1]: 631 nM
Emax [2]: 100%

CC(=O)c1cn(CC(O)CN2CCC(Oc3ccc(Cl)cc3)CC2)c2ccccc12 (stereo not drawn)
IC50 [1]: 3160 nM
Emax [2]: 73%

CC(=O)c1cn(CCCN2C3CCC2CC(Oc2ccc(F)cc2)C3)c2c(C)cccc12 (stereo not drawn)
IC50 [1]: 20 nM
Emax [2]: 98%

COc1cccc2c(C(=O)NCC(C)C)cn(CCCN3C4CCC3CC(CC(=O)c3ccc(Cl)cc3)C4)c12 (stereo not drawn)
IC50 ([…]): 126 nM
Emax: 128%

CC(=O)c1cn(CCCNCCOc2ccccc2)c2c(C#N)cccc12
Emax: 11%
